We go through 2 compounds from patent US20080319001A1, “Cancer Treatment Using Specific 3,6,9-Substituted Acridines” (priority 2005, published 2008).

One test relates to human telomerase. Conditions: Read et al. 2001; Harrison et al. 2003; Schultes et al. 2004; cited from earlier work.
The next test relates to tumour cell line. Conditions: Incles et al, 2004; cited from earlier work.
The subject of the next test is A549-derived xenografts. The test can be described thus: A549 xenograft combination study. The test is classed as in vivo, mouse. Conditions: single agent (AS1410 1 mg/kg or cisplatin 6 mg/kg), after approximately 60 days. The protocol: AS1410 was reconstituted in 0.9% saline B.P. to the required final concentration (0.331 and 0.0993) mg/ml of AS1410 succinate salt for intravenous administration).
The xenografts were prepared from the lung carcinoma A549 (ATCC Number CCL-185). Cells were grown in accordance with standard operating procedures and established methodology for this cell line to provide 5×10^6 cells per mouse.
A549-derived xenografts were established in 50 female nu/nu MF1 mice respectively by subcutaneous injection into the right flank of each mouse (5×10^6 cells in 100 μl phosphate buffered saline).
Animals were checked regularly until visible tumours appeared. Tumours were then measured in accordance with the relevant SOP regularly and tumour volume calculated using the formula: […]
Once the tumours were established, the mice were allocated into groups of 9 mice using a randomization procedure based on stratified xenograft volume.
Day 0 is defined as the day on which the average tumour volume is between 0.04 to 0.1 cm^3. Relative tumour volume on Day 0 is defined as 1.
Each mouse was observed and tumours measured until the xenografts tripled (3V0) in volume compared with volume on the day of treatment (V0). The elapsed period is the volume tripling time (VTT).
AS1410 was given by slow bolus intravenous injection. For AS1410 a dose volume 5 μl/g bodyweight was used. Control mice were untreated. […]

The next test deals with DU145 xenografts. The test can be described thus: DU145 xenograft efficacy study. The test is classed as in vivo, mouse. The protocol: The mouse was selected because it is a rodent species and is internationally accepted as the species of choice for human xenograft studies. The nu/nu MF1 strain was selected.
A high dose level of 1 mg/kg given once daily for 10 days was selected for this study. Low and intermediate dose levels of 0.3 and 0.6 mg/kg/day were also selected to aid characterisation of the dose-response profile.
The test articles were reconstituted in 0.9% physiological saline B.P. to the required final concentrations; and where necessary, an organic solvent (e.g. DMSO or ethanol) was used to aid solubilisation of some materials.
Treated mice received a bolus intravenous injection of the test formulation once daily for two weeks (week-days only). A dose-volume of […] bodyweight was be used. Control mice were untreated.
A total of 175 female MF1 mice were obtained from the Biological Research Facility, SGHMS, London. Animals were in a weight range of 26-30 g (6 to 8 weeks of age). Mice were individually identified using a subcutaneously implanted microchip.
The xenografts were prepared from the DU145 cell line (ATCC HTB-81). Cells were grown in accordance with established methodology for this cell line to provide 5×10^6 cells per mouse.
Xenografts were established in the MF1 mice by subcutaneous injection into the right flank of each mouse (5×10^6 cells in […] phosphate buffered saline).
Animals were checked regularly until visible tumours appeared. Tumours were then measured in accordance with the relevant SOP three times per week and tumour volume calculated using the formula: […]
Measurements commenced approximately one week before the day of treatment (Day 0) when the xenograft reached an approximate volume of 0.05 cm^3 (e.g. dimensions of approximately 5×5×4 mm).
Once the tumours were established, mice were allocated into groups of 5 mice using a randomization procedure based on stratified xenograft volume.
Day 0 is defined as the day on which the average tumour volume is between 0.12 to 0.16 cm^3. Relative tumour volume on Day 0 is defined as 1.
Each mouse was observed and tumours measured until the xenografts tripled in volume (3Vo) compared with volume on the day of treatment (Vo). The elapsed period was the volume tripling time (VTT).

`CN(C)c1ccc(Nc2c3ccc(NC(=O)CCN4CCCC4)cc3nc3cc(NC(=O)CCN4CCCC4)ccc23)cc1` [BSG01]: the “in vitro inhibitory activity against human telomerase” value in the test on human telomerase was “potent in vitro inhibitory activity”. Moreover, the “end-to-end fusions in chromosomes” value in the test on tumour cell line is on record as “cause end-to-end fusions in chromosomes”.
In the case of `O=C(CCN1CCCC1)Nc1ccc2c(NCc3ccc(F)c(F)c3)c3ccc(NC(=O)CCN4CCCC4)cc3nc2c1` [BSG17, N-(9-(3,4-Difluoro-benzylamino)-6-(3-pyrolidin-1-yl-propionamide)-acridin-3-yl)-3-pyrrolidin-1-yl-propionamide], the relative tumour volume result in the test with A549-derived xenografts was “about 5”. Further, the figures for the T-C value in the test on DU145 xenografts (0.3 mg/kg/day iv), in the test on DU145 xenografts (0.6 mg/kg/day iv) and with DU145 xenografts (1 mg/kg/day iv) were 7 days, 11.6 days and 11 days, respectively. Also, in the test with DU145 xenografts (0.3, 0.6 and 1.0 mg/kg/day iv, compared with BSG01), the “xenograft response” value was “clear dose response and effects at all three dose levels”.
